Reference: ChEMBL document CHEMBL1681651, “A broad spectrum anticancer nucleoside with selective toxicity against human colon cells in vitro” (2011)

How the values were obtained:
Assay type in all cases: functional
PC-3 = test: Growth inhibition of human PC3 cells after 48 hrs by […] growth inhibition assay; conditions: PC-3, 48 h
SW-620 = test: Growth inhibition of human SW620 cells assessed as cell growth at 10 uM after 48 hrs by SRB assay; conditions: SW-620, 48 h, read-out: Activity
HCT-116 = test: Growth inhibition of human HCT116 cells assessed as cell growth at 100 uM after 48 hrs by SRB assay; conditions: HCT-116, 48 h, read-out: Activity
SNB-19 = test: Growth inhibition of human SNB19 cells assessed as cell growth at 1 uM after 48 hrs by SRB assay; conditions: SNB-19, 48 h, read-out: Activity
SK-MEL-28 [1] = test: Growth inhibition of human SK-MEL-28 cells assessed as cell growth at 10 uM after 48 hrs by SRB assay; conditions: SK-MEL-28, 48 h, read-out: Activity
UACC-62 = test: Growth inhibition of human UACC62 cells assessed as cell growth at 10 uM after 48 hrs by SRB assay; conditions: UACC-62, 48 h, read-out: Activity
TK-10 [2] = test: Growth inhibition of human TK10 cells assessed as cell growth at 1 uM after 48 hrs by SRB assay; conditions: TK-10, 48 h, read-out: Activity
U-251 = test: Growth inhibition of human U251 cells assessed as cell growth at 10 uM after 48 hrs by SRB assay; conditions: U-251, 48 h, read-out: Activity
COLO 205 = test: Growth inhibition of human COLO205 cells after 48 hrs by […] growth inhibition assay; conditions: COLO 205, 48 h
SNB-75 [3] = test: Growth inhibition of human SNB75 cells assessed as cell growth at 10 uM after 48 hrs by SRB assay; conditions: SNB-75, 48 h, read-out: Activity
SF-539 [4] = test: Growth inhibition of human SF539 cells after 48 hrs by […] growth inhibition assay; conditions: SF-539, 48 h
NCI-H226 = test: Growth inhibition of human NCI-H226 cells assessed as cell growth at 0.1 uM after 48 hrs by SRB assay; conditions: NCI-H226, 48 h, read-out: Activity
NCI/ADR-RES [5] = test: Growth inhibition of human NCI/ADR-RES cells after 48 hrs by SRB assay
SNB-75 [6] = test: Growth inhibition of human SNB75 cells assessed as cell growth at 1 uM after 48 hrs by SRB assay; conditions: SNB-75, 48 h, read-out: Activity
SF-295 = test: Growth inhibition of human SF295 cells assessed as cell growth at 0.1 uM after 48 hrs by SRB assay; conditions: SF-295, 48 h, read-out: Activity
SK-MEL-28 [7] = test: Growth inhibition of human SK-MEL-28 cells after 48 hrs by […] growth inhibition assay; conditions: SK-MEL-28, 48 h
NCI-H522 = test: Growth inhibition of human NCI-H522 cells assessed as cell growth at 10 uM after 48 hrs by SRB assay; conditions: NCI-H522, 48 h, read-out: Activity
HL-60(TB) = test: Growth inhibition of human HL-60(TB) cells assessed as cell growth at 10 uM after 48 hrs by SRB assay; conditions: HL-60, 48 h, read-out: Activity
TK-10 [8] = test: Growth inhibition of human TK10 cells assessed as cell growth at 100 uM after 48 hrs by SRB assay; conditions: TK-10, 48 h, read-out: Activity
OVCAR-3 [9] = test: Growth inhibition of human OVCAR3 cells assessed as cell growth at 1 uM after 48 hrs by SRB assay; conditions: OVCAR-3, 48 h, read-out: Activity
NCI-H460 = test: Growth inhibition of human NCI-H460 cells assessed as cell growth at 1 mM after 48 hrs by SRB assay; conditions: NCI-H460, 48 h, read-out: Activity
HCC 2998 = test: Growth inhibition of human HCC2998 cells assessed as cell growth at 10 uM after 48 hrs by SRB assay; conditions: HCC 2998, 48 h, read-out: Activity
SK-MEL-5 = test: Growth inhibition of human SK-MEL-5 cells assessed as cell growth at 0.1 uM after 48 hrs by SRB assay; conditions: SK-MEL-5, 48 h, read-out: Activity
OVCAR-3 [10] = test: Growth inhibition of human OVCAR3 cells after 48 hrs by […] growth inhibition assay; conditions: OVCAR-3, 48 h
NCI/ADR-RES [11] = test: Growth inhibition of human NCI/ADR-RES cells assessed as cell growth at 1 uM after 48 hrs by SRB assay; conditions: read-out: Activity
A549 = test: Growth inhibition of human A549 cells assessed as cell growth at 0.1 uM after 48 hrs by SRB assay; conditions: A549, 48 h, read-out: Activity
SF-539 [12] = test: Growth inhibition of human SF539 cells assessed as cell growth at 100 uM after 48 hrs by SRB assay; conditions: SF-539, 48 h, read-out: Activity
MDA-MB-468 = test: Growth inhibition of human MDA-MB-468 cells after 48 hrs by […] growth inhibition assay; conditions: MDA-MB-468, 48 h, read-out: LC50 (the source's name)
ACHN [13] = test: Growth inhibition of human ACHN cells assessed as cell growth at 100 uM after 48 hrs by SRB assay; conditions: read-out: Activity
LOX IMVI = test: Growth inhibition of human LOXIMVI cells assessed as cell growth at 0.1 uM after 48 hrs by SRB assay; conditions: read-out: Activity
ACHN [14] = test: Growth inhibition of human ACHN cells assessed as cell growth at 1 mM after 48 hrs by SRB assay; conditions: read-out: Activity
CAKI-1 = test: Growth inhibition of human Caki1 cells assessed as cell growth at 0.1 uM after 48 hrs by SRB assay; conditions: CAKI-1, 48 h, read-out: Activity
[15] = read-out: LC50 (the source's name)
[16] = read-out: pLC50 (the source's name) (converted)

SMILES: CCOC(=O)C[C@H]1[C@@H](O[Si](C)(C)C(C)(C)C)[C@H](n2cnc3c(NC(=O)Nc4ccccc4)ncnc32)O[C@@H]1CNC(=O)NC
- GI50 (PC-3; read-out: GI50): 2.25 µM
- CC50 (PC-3; [15]): 78.4 µM
- TGI (PC-3; read-out: TGI): 48.5 µM
- GI50 (PC-3; read-out: pGI50 (converted)): 2.24 µM
- CC50 (PC-3; [16]): 12.6 µM
- TGI (PC-3; read-out: pTGI (converted)): 4.9 µM
- growth at 10 µM (SW-620): 97%
- growth at 100 µM (HCT-116): 23%
- growth at 1 µM (SNB-19): 95%
- growth at 10 µM (SK-MEL-28 [1]): 100%
- growth at 10 µM (UACC-62): 97%
- growth at 1 µM (TK-10 [2]): 103%
- growth at 10 µM (U-251): 94%
- GI50 (COLO 205; read-out: GI50): 3.84 µM
- CC50 (COLO 205; [15]): > 100 µM
- TGI (COLO 205; read-out: TGI): > 100 µM
- GI50 (COLO 205; read-out: pGI50 (converted)): 3.8 µM
- CC50 (COLO 205; [16]): > 100 µM
- TGI (COLO 205; read-out: pTGI (converted)): > 100 µM
- growth at 10 µM (SNB-75 [3]): 85%
- GI50 (SF-539 [4]; read-out: GI50): 5.19 µM
- CC50 (SF-539 [4]; [15]): > 100 µM
- TGI (SF-539 [4]; read-out: TGI): > 100 µM
- GI50 (SF-539 [4]; read-out: pGI50 (converted)): 5.25 µM
- CC50 (SF-539 [4]; [16]): > 100 µM
- TGI (SF-539 [4]; read-out: pTGI (converted)): > 100 µM
- growth at 0.1 µM (NCI-H226): 101%
- GI50 (NCI/ADR-RES [5]; read-out: GI50): > 100 µM
- CC50 (NCI/ADR-RES [5]; [15]): > 100 µM
- TGI (NCI/ADR-RES [5]; read-out: TGI): > 100 µM
- GI50 (NCI/ADR-RES [5]; read-out: pGI50 (converted)): > 100 µM
- CC50 (NCI/ADR-RES [5]; [16]): > 100 µM
- TGI (NCI/ADR-RES [5]; read-out: pTGI (converted)): > 100 µM
- growth at 1 µM (SNB-75 [6]): 90%
- growth at 0.1 µM (SF-295): 91%
- GI50 (SK-MEL-28 [7]; read-out: GI50): 6.85 µM
- CC50 (SK-MEL-28 [7]; [15]): 48.7 µM
- TGI (SK-MEL-28 [7]; read-out: TGI): 20.2 µM
- GI50 (SK-MEL-28 [7]; read-out: pGI50 (converted)): 6.92 µM
- CC50 (SK-MEL-28 [7]; [16]): > 49 µM
- TGI (SK-MEL-28 [7]; read-out: pTGI (converted)): 20.4 µM
- growth at 10 µM (NCI-H522): 83%
- growth at 10 µM (HL-60(TB)): 101%
- growth at 100 µM (TK-10 [8]): 59%
- growth at 1 µM (OVCAR-3 [9]): 115%
- growth at 1000 µM (NCI-H460): -49%
- growth at 10 µM (HCC 2998): 93%
- growth at 0.1 µM (SK-MEL-5): 96%
- GI50 (OVCAR-3 [10]; read-out: GI50): 4.59 µM
- CC50 (OVCAR-3 [10]; [15]): 91.3 µM
- TGI (OVCAR-3 [10]; read-out: TGI): 17.2 µM
- GI50 (OVCAR-3 [10]; read-out: pGI50 (converted)): 4.57 µM
- CC50 (OVCAR-3 [10]; [16]): 91.2 µM
- TGI (OVCAR-3 [10]; read-out: pTGI (converted)): 17 µM
- growth at 1 µM (NCI/ADR-RES [11]): 107%
- growth at 0.1 µM (A549): 102%
- growth at 100 µM (SF-539 [12]): 29%
- CC50 (MDA-MB-468): > 100 µM
- growth at 100 µM (ACHN [13]): 47%
- growth at 0.1 µM (LOX IMVI): 97%
- growth at 1000 µM (ACHN [14]): 35%
- growth at 0.1 µM (CAKI-1): 88%
